Measurements published in paper PMC6407579, “New flavonoid – N,N-dibenzyl(N-methyl)amine hybrids: Multi-target-directed agents for Alzheimer´s disease endowed with neurogenic properties” (Journal of Enzyme Inhibition and Medicinal Chemistry, 2019).
Several values for one entry are separate records, joined by “and”; a condition that tells them apart may be missing. Identical values can stand only once. Like-named read-outs stand apart in the source and are kept apart here.

What was measured:
recombinant hMAO-B = biological target: T1, recombinant hMAO-B (Homo sapiens, UniProt P27338); assay: biochemical; format: biochemical; settings: mean ± SEM (n = 3); 100 µM highest concentration tested
T1 sequence (P27338 1-520): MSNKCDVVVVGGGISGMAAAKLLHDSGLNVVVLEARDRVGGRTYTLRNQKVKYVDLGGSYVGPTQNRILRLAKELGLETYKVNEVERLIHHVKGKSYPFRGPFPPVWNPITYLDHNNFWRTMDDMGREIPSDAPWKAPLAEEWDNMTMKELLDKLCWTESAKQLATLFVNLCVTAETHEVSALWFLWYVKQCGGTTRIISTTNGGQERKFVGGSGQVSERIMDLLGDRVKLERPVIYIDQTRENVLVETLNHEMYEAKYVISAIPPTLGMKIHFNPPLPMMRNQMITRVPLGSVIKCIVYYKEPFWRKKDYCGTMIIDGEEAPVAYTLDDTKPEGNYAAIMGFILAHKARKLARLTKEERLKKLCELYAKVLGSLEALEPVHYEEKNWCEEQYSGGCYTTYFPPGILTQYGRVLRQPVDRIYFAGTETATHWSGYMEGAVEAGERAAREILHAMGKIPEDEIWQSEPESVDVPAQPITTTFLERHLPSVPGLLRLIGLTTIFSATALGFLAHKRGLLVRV

σ2R = biological target: T2, σ2R (Rattus norvegicus, UniProt Q5U3Y7); assay: Sigma-2 receptor binding, [3H]-DTG competition
T2 construct: 150 µg of rat liver homogenate were incubated; from tissue; host or cells: rat liver homogenate
T2 sequence (Q5U3Y7 1-176): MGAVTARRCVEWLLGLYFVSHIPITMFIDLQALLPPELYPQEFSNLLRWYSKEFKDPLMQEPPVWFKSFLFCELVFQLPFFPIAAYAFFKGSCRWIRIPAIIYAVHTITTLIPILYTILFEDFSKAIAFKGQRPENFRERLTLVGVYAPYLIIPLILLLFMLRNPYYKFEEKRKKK

recombinant hMAO-A = biological target: T3, recombinant hMAO-A (Homo sapiens, UniProt P21397); assay: biochemical; format: biochemical; settings: for IC50: mean ± SEM (n = 3), 100 µM highest concentration tested
T3 sequence (P21397 1-527): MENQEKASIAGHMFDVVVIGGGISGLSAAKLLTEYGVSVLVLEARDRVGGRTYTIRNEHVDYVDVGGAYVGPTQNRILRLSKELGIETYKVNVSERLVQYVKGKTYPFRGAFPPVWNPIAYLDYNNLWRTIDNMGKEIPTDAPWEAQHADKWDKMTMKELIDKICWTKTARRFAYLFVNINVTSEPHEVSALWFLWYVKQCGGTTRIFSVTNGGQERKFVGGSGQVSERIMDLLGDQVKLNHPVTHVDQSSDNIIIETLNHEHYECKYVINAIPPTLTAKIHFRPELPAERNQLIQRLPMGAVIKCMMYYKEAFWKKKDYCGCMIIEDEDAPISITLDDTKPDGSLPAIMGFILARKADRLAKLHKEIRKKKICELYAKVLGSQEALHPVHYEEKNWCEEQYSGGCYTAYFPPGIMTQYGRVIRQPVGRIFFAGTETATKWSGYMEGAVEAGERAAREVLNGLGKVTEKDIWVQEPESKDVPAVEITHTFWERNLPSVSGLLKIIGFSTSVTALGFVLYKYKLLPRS

[1] = In vitro blood-brain barrier permeation assay (PAMPA-BBB); format: in vitro ADME; settings: pig, pH 7.4, porcine brain lipid, PBS:ethanol (70:30), 25 °C, read-out: PAMPA-BBB permeability in the CNS (Pe)
Experimental: Prediction of the brain penetration was evaluated using a parallel artificial membrane permeation assay (PAMPA-BBB), in a similar manner as previously described[36]^,[46]^,[51–53]. Pipetting was performed with a semi-automatic pipettor (CyBi®-SELMA) and UV reading with a microplate spectrophotometer (Multiskan Spectrum, Thermo Electron Co.). Commercial drugs, phosphate buffered saline solution at pH 7.4 (PBS), and dodecane were purchased from Sigma, Aldrich, Acros, and Fluka. Millex filter units (PVDF membrane, diameter 25 mm, pore size 0.45 μm) were acquired from Millipore. The porcine brain lipid (PBL) was obtained from Avanti Polar Lipids. The donor microplate was a 96-well filter plate (PVDF membrane, pore size 0.45 μm) and the acceptor microplate was an indented 96-well plate, both from Millipore. The acceptor 96-well microplate was filled with 200 μL of PBS: ethanol (70:30) and the filter surface of the donor microplate was impregnated with 5 μL of porcine brain lipid (PBL) in dodecane (20 mg mL^−1). Compounds were dissolved in PBS: ethanol (70:30) at 100 μg mL^−1, filtered through a Millex filter, and then added to the donor wells (200 μL). The donor filter plate was carefully put on the acceptor plate to form a sandwich, which was left undisturbed for 120 min at 25 °C. After incubation, the donor plate is carefully removed and the concentration of compounds in the acceptor wells was determined by UV-Vis spectroscopy. Every sample is analysed at five wavelengths, in four wells and at least in three independent runs, and the results are given as the mean ± standard deviation. In each experiment, 11 quality control standards of known BBB permeability were included to validate and normalise the analysis set.
To check if new compounds could be able to reach their CNS-targets, we used the in vitro parallel artificial membrane permeability assay for the blood-brain barrier (PAMPA-BBB) described by Di et al.[87], and partially modified by us for testing molecules with limited water-solubility[36]^,[46]^,[51–53]. The passive CNS-permeation of new compounds 1–13 through a lipid extract of porcine brain was measured at room temperature. In each experiment, 11 commercial drugs of known brain permeability were also tested and their permeability values normalised to the reported PAMPA-BBB data. […].

σ1R = biological target: T4, σ1R (Cavia porcellus, UniProt Q60492); assay: Sigma-1 receptor binding, [3H]-(+)-pentazocine competition; set-up: species or system guinea pig
T4 construct: the thawed membrane preparation of guinea pig brain cortex; from tissue; host or cells: guinea pig brain cortex membranes
T4 sequence (Q60492 whole entry): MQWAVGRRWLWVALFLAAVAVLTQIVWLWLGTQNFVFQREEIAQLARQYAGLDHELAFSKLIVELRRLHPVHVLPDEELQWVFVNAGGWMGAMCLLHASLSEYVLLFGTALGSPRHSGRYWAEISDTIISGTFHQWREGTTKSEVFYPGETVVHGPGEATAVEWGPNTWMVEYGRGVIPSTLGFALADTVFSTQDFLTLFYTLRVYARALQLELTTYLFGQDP

[2] = biological target: T5, human recombinant AChE (hAChE) (Homo sapiens, UniProt P22303); assay: biochemical
T5 construct: purchased Sigma Chemical Co
T5 sequence (P22303 32-614): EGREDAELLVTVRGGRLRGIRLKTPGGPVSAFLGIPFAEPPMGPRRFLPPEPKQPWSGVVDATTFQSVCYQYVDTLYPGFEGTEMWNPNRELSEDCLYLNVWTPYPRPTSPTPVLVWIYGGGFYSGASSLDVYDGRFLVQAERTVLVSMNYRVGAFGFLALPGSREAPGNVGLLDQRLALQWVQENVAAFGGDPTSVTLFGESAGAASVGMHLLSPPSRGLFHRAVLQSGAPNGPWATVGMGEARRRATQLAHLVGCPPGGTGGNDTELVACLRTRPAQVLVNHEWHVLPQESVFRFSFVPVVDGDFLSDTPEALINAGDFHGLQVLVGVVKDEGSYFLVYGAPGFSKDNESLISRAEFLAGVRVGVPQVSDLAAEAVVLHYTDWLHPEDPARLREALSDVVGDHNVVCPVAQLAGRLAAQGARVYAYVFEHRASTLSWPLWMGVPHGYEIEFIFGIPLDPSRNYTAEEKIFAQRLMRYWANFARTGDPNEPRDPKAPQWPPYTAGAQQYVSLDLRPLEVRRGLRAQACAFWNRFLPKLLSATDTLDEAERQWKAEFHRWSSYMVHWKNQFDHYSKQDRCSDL
Experimental: The Ellman method was followed, using human recombinant AChE and BuChE from human serum. The assay solution consisted of 0.1 M phosphate buffer pH 8.0, 400 μM 5,5´-dithiobis(2-nitrobenzoic acid) (DTNB, Ellman’s reagent), 0.05 U/mL hAChE (Sigma Chemical Co.) or 0.024 U/mL hBuChE (Sigma Chemical Co.), and 800 μM acetylthiocholine iodide, or 500 μM butyrylthiocholine as the substrate of the enzymatic reaction, respectively. The compounds tested were added to the assay solution and preincubated with the enzyme for 5 min at 30 °C. After that period, the substrate was added.

[3] = mean ± SEM (n = 3), read-out: hAChE IC50

COc1ccc2oc(C(=O)Nc3ccc(CN(C)Cc4ccccc4)cc3)cc(=O)c2c1 [Compound 1, N-(4-((Benzyl(methyl)amino)methyl)phenyl)-6-methoxy-4-oxo-4H-chromene-2-carboxamide]
IC50 (recombinant hMAO-B): 59.8 ± 3.7 µM | Ki (σ2R): 1.78 ± 0.43 µM | preference for hMAO-A compared to hMAO-B (recombinant hMAO-A): at least 4.4 times | IC50 (recombinant hMAO-A): 1.6 ± 0.4 µM | Papp at 120 min, 100 μg mL^−1 [1]: 17.1 ± 1.5 ×10⁻⁶ cm/s | Ki (σ1R): 0.48 ± 0.05 µM | Selectivity vs. σ1R (Kiσ2R/Kiσ1R) (σ1R): 3.7 | IC50 [2, 3]: 1.5 ± 0.2 µM

CN(Cc1ccccc1)Cc1ccc(NC(=O)c2cc(=O)c3cc(O)ccc3o2)cc1 [Compound 2, N-(4-((Benzyl(methyl)amino)methyl)phenyl)-6-hydroxy-4-oxo-4H-chromene-2-carboxamide]
IC50 (recombinant hMAO-B): 9.7 ± 1.6 µM | Ki (σ2R): 1.6 ± 0.28 µM | IC50 (recombinant hMAO-A): 7 ± 0.8 µM | Papp at 120 min, 100 μg mL^−1 [1]: 6.8 ± 0.4 ×10⁻⁶ cm/s | Ki (σ1R): 0.38 ± 0.05 µM | Selectivity vs. σ1R (Kiσ2R/Kiσ1R) (σ1R): 4.2 | IC50 [2, 3]: 1.3 ± 0.3 µM

COc1cc2oc(C(=O)Nc3ccc(CN(C)Cc4ccccc4)cc3)cc(=O)c2cc1OC [Compound 5, N-(4-((Benzyl(methyl)amino)methyl)phenyl)-6,7-dimethoxy-4-oxo-4H-chromene-2-carboxamide]
IC50 (recombinant hMAO-B): 8.1 ± 0.4 µM | IC50 (recombinant hMAO-A): 9 ± 0.1 µM | Papp at 120 min, 100 μg mL^−1 [1]: 19.1 ± 1.5 ×10⁻⁶ cm/s | IC50 ([2]; hAChE IC50, mean ± SEM (n = 3)): 0.99 µM and 1 µM

COc1cc2oc(C(=O)Nc3cccc(CN(C)Cc4ccccc4)c3)cc(=O)c2cc1OC [Compound 6, N-(3-((Benzyl(methyl)amino)methyl)phenyl)-6,7-dimethoxy-4-oxo-4H-chromene-2-carboxamide]
IC50 (recombinant hMAO-B): > 100 µM | Ki (σ2R; rat liver homogenate, [3H]-DTG, mean ± SEM, read-out: Ki σ2R): 1.3 ± 0.35 µM | IC50 (recombinant hMAO-A): > 100 µM | Papp at 120 min, 100 μg mL^−1 [1]: 18.8 ± 1.3 ×10⁻⁶ cm/s | IC50 (σ1R): 0.53 µM and 0.5 µM | Selectivity vs. σ1R (Kiσ2R/Kiσ1R) (σ1R): 2.5 | Ki (σ1R; guinea pig brain cortex membranes, [3H]-(+)-pentazocine, mean ± SEM, read-out: Ki σ1R): 0.53 ± 0.07 µM | IC50 ([2]; hAChE IC50, mean ± SEM (n = 3)): 4.5 ± 0.8 µM
